This note sets out measurements from ChEMBL document CHEMBL3991601, “The target landscape of clinical kinase drugs” (Science, 2017).

What is called Kd is the equilibrium constant for the complex coming apart.

Assay [1] addresses T1, Serine/threonine-protein kinase 3 (Homo sapiens, UniProt Q13188).
T1 sequence (Q13188 whole entry): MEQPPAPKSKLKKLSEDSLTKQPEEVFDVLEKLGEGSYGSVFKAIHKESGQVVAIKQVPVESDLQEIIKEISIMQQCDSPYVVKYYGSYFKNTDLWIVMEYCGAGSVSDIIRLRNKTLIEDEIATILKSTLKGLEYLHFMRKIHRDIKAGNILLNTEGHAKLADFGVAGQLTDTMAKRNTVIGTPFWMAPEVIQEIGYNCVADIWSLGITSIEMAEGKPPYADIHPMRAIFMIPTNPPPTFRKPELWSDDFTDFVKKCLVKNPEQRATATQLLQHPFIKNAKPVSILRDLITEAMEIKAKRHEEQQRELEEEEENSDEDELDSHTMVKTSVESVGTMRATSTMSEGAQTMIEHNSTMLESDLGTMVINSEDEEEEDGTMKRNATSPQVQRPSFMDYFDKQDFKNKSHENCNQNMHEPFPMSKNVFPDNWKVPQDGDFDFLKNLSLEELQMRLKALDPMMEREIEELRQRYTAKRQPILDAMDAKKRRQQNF

Assay [2] addresses Tyrosine-protein kinase JAK1 (Homo sapiens, UniProt P23458).
Assay [3] has as its target ATP-dependent RNA helicase DDX3X (Homo sapiens, UniProt O00571).
The target in assay [4] is Serine/threonine-protein kinase 26 (Homo sapiens, UniProt Q9P289).
Sequence of Serine/threonine-protein kinase 26 (Q9P289 whole entry): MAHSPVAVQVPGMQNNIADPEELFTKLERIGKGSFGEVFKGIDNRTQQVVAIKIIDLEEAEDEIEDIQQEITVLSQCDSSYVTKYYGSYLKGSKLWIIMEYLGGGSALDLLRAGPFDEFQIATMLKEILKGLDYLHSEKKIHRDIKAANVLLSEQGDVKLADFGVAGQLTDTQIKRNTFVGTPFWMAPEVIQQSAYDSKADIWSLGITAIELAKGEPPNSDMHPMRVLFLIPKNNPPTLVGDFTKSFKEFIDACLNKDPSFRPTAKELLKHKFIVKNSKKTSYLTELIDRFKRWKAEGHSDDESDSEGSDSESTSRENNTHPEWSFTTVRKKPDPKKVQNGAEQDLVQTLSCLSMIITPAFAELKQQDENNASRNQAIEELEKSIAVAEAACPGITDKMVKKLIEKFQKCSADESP
For assay [5], the target named is T2, Tyrosine--tRNA ligase, cytoplasmic (Homo sapiens, UniProt P54577).
T2 sequence (P54577 whole entry): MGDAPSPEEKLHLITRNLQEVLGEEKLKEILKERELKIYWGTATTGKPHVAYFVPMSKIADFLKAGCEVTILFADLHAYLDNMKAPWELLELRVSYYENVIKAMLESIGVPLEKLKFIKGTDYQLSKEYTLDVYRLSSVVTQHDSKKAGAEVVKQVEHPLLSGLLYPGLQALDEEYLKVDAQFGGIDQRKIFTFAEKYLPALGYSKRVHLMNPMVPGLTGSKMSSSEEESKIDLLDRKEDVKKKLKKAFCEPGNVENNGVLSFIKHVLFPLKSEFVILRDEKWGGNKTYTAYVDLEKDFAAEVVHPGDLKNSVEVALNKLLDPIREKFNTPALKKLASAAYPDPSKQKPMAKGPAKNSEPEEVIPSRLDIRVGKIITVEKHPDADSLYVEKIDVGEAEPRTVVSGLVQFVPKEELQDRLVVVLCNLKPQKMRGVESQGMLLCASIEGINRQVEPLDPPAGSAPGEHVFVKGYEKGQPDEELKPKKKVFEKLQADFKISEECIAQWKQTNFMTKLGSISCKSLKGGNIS

The target in assay [6] is Mitogen-activated protein kinase kinase kinase 4 (Homo sapiens, UniProt Q9Y6R4).
Sequence of Mitogen-activated protein kinase kinase kinase 4 (Q9Y6R4 whole entry): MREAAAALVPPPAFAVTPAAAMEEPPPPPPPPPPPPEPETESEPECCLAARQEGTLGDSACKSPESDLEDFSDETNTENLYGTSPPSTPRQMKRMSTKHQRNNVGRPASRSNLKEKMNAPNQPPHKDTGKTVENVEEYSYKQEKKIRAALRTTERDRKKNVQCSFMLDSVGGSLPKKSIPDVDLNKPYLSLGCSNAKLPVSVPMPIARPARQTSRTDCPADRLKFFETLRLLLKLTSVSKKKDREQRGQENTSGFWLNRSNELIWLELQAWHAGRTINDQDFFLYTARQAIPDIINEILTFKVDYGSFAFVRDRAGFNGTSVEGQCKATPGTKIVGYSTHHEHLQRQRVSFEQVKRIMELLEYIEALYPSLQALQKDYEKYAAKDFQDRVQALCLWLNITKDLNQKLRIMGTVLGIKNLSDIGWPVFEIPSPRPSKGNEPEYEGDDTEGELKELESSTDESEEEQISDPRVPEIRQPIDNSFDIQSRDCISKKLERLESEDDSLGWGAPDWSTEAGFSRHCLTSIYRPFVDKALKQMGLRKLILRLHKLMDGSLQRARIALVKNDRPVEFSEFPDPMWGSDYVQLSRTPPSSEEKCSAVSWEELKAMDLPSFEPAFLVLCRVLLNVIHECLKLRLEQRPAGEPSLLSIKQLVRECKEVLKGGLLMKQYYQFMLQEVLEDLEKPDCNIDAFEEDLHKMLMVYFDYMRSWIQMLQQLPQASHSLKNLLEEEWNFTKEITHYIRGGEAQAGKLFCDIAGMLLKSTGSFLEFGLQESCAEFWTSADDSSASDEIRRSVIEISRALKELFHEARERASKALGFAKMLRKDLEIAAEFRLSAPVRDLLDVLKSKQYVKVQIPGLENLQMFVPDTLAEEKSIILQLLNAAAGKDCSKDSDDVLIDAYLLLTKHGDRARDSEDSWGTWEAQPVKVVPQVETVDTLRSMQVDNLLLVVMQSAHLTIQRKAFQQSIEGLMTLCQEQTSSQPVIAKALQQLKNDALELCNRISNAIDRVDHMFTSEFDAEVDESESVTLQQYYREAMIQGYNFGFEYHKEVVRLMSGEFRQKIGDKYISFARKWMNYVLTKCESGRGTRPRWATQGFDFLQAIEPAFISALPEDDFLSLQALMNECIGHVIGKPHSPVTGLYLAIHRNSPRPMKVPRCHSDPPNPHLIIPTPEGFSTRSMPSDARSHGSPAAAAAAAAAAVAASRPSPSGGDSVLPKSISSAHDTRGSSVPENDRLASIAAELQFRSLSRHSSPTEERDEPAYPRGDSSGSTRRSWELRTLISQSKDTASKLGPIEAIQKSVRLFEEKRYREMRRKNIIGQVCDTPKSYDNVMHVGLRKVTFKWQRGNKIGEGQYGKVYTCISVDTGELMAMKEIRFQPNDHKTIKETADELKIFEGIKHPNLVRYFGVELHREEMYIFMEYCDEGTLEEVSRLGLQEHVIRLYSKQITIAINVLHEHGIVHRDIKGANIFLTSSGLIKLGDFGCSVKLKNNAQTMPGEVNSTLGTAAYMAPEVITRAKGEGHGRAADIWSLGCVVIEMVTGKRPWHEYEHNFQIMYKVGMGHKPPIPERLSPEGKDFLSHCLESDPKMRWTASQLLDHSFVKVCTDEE
Assay [7] deals with T3, Inhibitor of nuclear factor kappa-B kinase subunit epsilon (Homo sapiens, UniProt Q14164).
T3 sequence (Q14164 whole entry): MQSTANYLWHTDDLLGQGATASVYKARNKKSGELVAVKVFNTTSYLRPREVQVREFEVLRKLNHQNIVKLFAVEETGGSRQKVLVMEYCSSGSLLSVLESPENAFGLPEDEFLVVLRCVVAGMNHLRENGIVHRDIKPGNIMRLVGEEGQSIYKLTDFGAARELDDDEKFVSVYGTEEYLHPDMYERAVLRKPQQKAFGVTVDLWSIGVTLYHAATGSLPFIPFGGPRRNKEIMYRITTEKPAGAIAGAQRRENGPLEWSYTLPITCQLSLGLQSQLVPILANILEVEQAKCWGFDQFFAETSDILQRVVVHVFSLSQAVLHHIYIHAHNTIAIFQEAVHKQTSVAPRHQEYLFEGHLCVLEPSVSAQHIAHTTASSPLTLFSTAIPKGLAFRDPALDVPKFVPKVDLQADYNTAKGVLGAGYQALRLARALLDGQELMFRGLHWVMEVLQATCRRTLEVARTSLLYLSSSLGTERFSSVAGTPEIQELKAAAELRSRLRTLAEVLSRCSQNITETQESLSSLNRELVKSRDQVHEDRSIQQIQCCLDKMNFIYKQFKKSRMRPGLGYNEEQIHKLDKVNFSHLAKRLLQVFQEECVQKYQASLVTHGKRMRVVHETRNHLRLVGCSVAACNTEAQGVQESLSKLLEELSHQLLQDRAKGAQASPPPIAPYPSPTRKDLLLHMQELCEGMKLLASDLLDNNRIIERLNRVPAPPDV

For assay [8], the target named is T4, Ephrin type-B receptor 3 (Homo sapiens, UniProt P54753).
T4 sequence (P54753 whole entry): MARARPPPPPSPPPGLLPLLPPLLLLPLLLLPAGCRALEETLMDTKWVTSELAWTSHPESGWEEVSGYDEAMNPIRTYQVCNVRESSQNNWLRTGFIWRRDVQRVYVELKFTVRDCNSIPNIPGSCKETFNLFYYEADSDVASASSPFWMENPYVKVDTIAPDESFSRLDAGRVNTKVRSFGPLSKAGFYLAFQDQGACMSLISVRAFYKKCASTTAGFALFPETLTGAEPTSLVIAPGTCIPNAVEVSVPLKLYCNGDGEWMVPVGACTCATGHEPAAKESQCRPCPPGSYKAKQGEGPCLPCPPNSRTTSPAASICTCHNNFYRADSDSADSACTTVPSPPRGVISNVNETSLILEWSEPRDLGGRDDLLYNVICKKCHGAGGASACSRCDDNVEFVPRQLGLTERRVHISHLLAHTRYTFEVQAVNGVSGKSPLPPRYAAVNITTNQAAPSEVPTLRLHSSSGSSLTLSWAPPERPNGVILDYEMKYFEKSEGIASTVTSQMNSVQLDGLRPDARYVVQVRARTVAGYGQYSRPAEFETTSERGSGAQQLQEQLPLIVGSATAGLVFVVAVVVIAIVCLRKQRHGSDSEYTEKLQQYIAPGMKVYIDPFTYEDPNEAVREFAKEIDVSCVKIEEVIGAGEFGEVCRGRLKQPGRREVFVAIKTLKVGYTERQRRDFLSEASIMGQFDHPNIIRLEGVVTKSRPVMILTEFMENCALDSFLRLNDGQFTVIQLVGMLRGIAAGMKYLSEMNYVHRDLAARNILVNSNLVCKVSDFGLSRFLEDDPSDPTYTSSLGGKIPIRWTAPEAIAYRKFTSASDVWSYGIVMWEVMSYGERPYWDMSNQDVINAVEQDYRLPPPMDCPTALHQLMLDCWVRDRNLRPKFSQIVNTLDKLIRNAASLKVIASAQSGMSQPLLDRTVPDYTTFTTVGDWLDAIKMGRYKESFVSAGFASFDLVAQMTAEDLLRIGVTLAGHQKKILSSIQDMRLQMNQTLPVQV

For assay [9], the target named is Serine/threonine-protein kinase MRCK beta (Homo sapiens, UniProt Q9Y5S2).

Active and inactive are the calls of the source. For most assays here, no stated cut-off is given here; in the data, actives have a measured Kd and inactives only a lower limit.

Sequence of Tyrosine-protein kinase JAK1 (P23458 whole entry): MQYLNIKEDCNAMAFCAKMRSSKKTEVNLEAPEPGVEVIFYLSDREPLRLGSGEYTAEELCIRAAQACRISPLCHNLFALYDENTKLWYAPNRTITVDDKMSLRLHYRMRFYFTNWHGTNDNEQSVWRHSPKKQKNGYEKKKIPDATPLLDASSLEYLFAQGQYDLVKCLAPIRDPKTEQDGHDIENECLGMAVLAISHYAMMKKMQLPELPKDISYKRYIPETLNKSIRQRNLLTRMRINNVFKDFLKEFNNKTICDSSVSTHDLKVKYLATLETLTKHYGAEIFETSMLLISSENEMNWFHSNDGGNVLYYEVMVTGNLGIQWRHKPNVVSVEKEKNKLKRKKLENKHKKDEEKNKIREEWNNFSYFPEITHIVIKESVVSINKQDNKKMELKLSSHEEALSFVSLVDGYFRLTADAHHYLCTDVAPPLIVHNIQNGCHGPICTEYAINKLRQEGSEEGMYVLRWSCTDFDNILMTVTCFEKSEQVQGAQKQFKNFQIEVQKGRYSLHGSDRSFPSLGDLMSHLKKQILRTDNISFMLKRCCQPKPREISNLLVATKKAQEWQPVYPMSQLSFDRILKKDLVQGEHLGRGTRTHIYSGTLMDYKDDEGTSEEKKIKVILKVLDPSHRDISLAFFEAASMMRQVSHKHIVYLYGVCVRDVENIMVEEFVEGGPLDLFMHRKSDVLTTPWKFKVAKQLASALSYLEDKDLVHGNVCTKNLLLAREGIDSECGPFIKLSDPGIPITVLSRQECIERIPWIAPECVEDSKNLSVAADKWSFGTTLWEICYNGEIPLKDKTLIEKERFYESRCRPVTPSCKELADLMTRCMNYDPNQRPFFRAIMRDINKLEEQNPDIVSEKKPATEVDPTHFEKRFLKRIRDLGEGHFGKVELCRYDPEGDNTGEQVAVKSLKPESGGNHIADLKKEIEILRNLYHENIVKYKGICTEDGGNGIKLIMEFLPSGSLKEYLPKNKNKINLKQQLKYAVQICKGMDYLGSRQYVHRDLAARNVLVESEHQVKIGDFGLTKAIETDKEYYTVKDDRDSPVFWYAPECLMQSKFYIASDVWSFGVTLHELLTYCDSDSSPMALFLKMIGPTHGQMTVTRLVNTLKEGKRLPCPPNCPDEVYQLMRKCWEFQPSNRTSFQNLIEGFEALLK
Sequence of ATP-dependent RNA helicase DDX3X (O00571 whole entry): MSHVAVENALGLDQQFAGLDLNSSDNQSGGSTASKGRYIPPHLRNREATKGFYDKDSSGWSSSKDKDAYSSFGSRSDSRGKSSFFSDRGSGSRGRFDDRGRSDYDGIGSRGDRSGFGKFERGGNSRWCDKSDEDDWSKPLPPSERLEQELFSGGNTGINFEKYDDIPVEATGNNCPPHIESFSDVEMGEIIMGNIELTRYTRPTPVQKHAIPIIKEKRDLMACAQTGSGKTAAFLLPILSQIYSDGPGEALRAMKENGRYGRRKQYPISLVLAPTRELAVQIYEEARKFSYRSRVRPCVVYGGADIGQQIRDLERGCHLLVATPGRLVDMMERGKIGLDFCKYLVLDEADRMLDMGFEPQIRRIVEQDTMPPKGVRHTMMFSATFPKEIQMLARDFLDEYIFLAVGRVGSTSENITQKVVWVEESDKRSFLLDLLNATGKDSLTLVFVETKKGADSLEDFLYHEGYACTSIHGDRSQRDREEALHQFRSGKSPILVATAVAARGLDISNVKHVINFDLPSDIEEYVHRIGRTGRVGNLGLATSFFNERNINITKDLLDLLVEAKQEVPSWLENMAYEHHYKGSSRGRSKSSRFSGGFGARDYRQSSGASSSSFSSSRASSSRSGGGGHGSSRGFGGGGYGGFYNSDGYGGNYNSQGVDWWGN

Consider `CCc1cc2c(cc1N1CCC(N3CCOCC3)CC1)C(C)(C)c1[nH]c3cc(C#N)ccc3c1C2=O` [ALECTINIB], for which the Kd in assay [1], in assay [2], in assay [3], in assay [4], in assay [5] and in assay [6] was > 30 µM (inactive) each time. For the same compound, the Kd in assay [7], in [8] and in [9] was > 30 µM (inactive) in each case.
With `Cc1c(NC(=O)OC[C@@H]2COCCN2)cn2ncnc(Nc3ccc4c(cnn4Cc4cccc(F)c4)c3)c12` [AC-480], the Kd in assay [1], in assay [2], in assay [3], in [4], in [5] and in [6] was > 30 µM (inactive) throughout. Also, the Kd in assay [7], in assay [8] and in assay [9] was > 30 µM (inactive) in each case.
Regarding `COc1cc(Nc2ncc(F)c(Nc3ccc4c(n3)N(COP(=O)(O)O)C(=O)C(C)(C)O4)n2)cc(OC)c1OC` [FOSTAMATINIB], the Kd in assay [1], in assay [2], in assay [3], in assay [4], in [5] and in [6] was > 30 µM (inactive) each time. Further, the figures for the Kd in assay [7], in assay [8] and in [9] were 1.32 µM (active), > 30 µM (inactive) and > 30 µM (inactive), respectively.
As to `CN1CCN(c2nc(C3=C(c4c[nH]c5ccccc45)C(=O)NC3=O)c3ccccc3n2)CC1` [SOTRASTAURIN], the Kd in assay [1], in assay [2], in assay [3], in [4], in [5] and in [6] was > 30 µM (inactive) each time. The Kd in assay [7], in assay [8] and in assay [9] was > 30 µM (inactive) throughout.
Take `CC(C)CC(=O)Nc1[nH]nc2c1CN(C(=O)C1CCN(C)CC1)C2(C)C` [PHA-793887]: the Kd in [1] was > 30 µM (inactive); in assay [2] it was > 30 µM (inactive); in [3], > 30 µM (inactive); in assay [4], 0.175 µM; in assay [5], > 30 µM (inactive); in assay [6] it was > 30 µM (inactive). Besides, the Kd in [7], in [8] and in assay [9] was > 30 µM (inactive) in each case.
As for `COc1cccc2cc(-c3nc([C@H]4CC[C@H](C(=O)O)CC4)n4ncnc(N)c34)[nH]c12` [OSI-027], the Kd in assay [1], in assay [2], in [3], in assay [4], in [5] and in assay [6] was > 30 µM (inactive) throughout. For the same compound, the Kd in assay [7], in assay [8] and in [9] was > 30 µM (inactive) in each case.
In the case of `COc1ccc2c(OCc3nnc4ccc(-c5ccccc5)nn34)ccnc2c1` [AMG-208], the Kd in assay [1], in assay [2], in [3], in assay [4], in assay [5] and in [6] was > 30 µM (inactive) throughout. Besides, the Kd in assay [7], in assay [8] and in assay [9] was > 30 µM (inactive) each time.
For the compound `COc1cc2ncnc(Nc3ccc(F)c(Cl)c3)c2cc1NC(=O)/C=C/CN1CCCCC1` [DACOMITINIB ANHYDROUS], the Kd in assay [1], in [2], in [3], in assay [4], in [5] and in [6] was > 30 µM (inactive) throughout. Further, the Kd in assay [7], in assay [8] and in assay [9] was > 30 µM (inactive) throughout.
Turning to `CC[C@@](C)(Nc1ccnc(-c2c[nH]c3ncccc23)n1)C(=O)NCC(F)(F)F` [DECERNOTINIB], the Kd is > 30 µM (inactive) in assay [1]; > 30 µM (inactive) in assay [2]; > 30 µM (inactive) in assay [3]; 1.14 µM (active) in assay [4]; > 30 µM (inactive) in assay [5]; > 30 µM (inactive) in assay [6]. Also, the Kd in [7] is > 30 µM (inactive); in assay [8], > 30 µM (inactive); in [9], 0.116 µM (active).
Regarding `O=C(NOC[C@H](O)CO)c1ccc(F)c(F)c1Nc1ccc(I)cc1F` [MIRDAMETINIB], the Kd in assay [1], in assay [2], in assay [3], in assay [4], in [5] and in [6] was > 30 µM (inactive) in each case. In addition, the Kd in assay [7], in [8] and in [9] was > 30 µM (inactive) each time.
Regarding `COc1cc2nccc(Oc3ccc(NC(=O)C4(C(=O)Nc5ccc(F)cc5)CC4)cc3)c2cc1OC` [CABOZANTINIB], the Kd in assay [1], in assay [2], in [3], in assay [4], in assay [5] and in assay [6] was > 30 µM (inactive) throughout. The Kd in assay [7], in assay [8] and in [9] was > 30 µM (inactive) throughout.
